Test results: article PMC8582824, “Targeting DDX3X Helicase Activity with BA103 Shows Promising Therapeutic Effects in Preclinical Glioblastoma Models” (Cancers, 2021)

Columns and labels:
Format in all cases: cell-based
U87 and U251 cells [1] = assay: Cell cycle analysis in GBM cells; settings: after 72 h
Method: […] At the end point, at least 5 × 10^6 cells were harvested, washed with phosphate buffer saline (PBS), and fixed overnight with 70% ethanol. Then, ethanol was removed by centrifugation, and the cells were resuspended in PBS and stained with 50 μg/mL propidium iodide (PI) at 4 °C for 30 min in the dark. Stained cells were analyzed by a Tali image-based cytometer (Life Technologies, Carlsbad, CA, USA) counting 20 fields per sample, and exported fcs raw data were elaborated by Flowing software (v. 2.5.0, by Perttu Terho, University of Turku, Finland).
To better characterize the antiproliferative effect of BA103, we performed further biological evaluation using GBM cell lines. The expression of DDX3X was evaluated in U87 and U251 cell lines by Western blot analysis in comparison with HepG2 cells, resulting in basally detectable mainly in U87 cells (Figure 6A). […] Cell cycle experiments were performed in normal conditions (CTR) and in the presence of BA103 at 1 µM and 10 µM concentrations for 48 h and 72 h. […] Thus, also according to the importance of β-catenin signaling in GBM, we analyzed whether the expression of β-catenin in U87 and U251 cells could be associated with DDX3X activity. GBM cells were treated with BA103 for 48 h, and then, β-catenin expression was evaluated by Western blot analysis and immunofluorescence analysis (Figure 7A,B, respectively). […]

DDX3X = DDX3X protein expression by Western blot in GBM cells; settings: 24 h of treatment
Method: (§1) Cells were incubated for 15 min in lysis buffer containing 1% triton, 0.1% SDS, 2 mmol/L CaCl2, 10 mg/mL orthovanadate, and 1× protease inhibitors cocktail (Sigma-Aldrich, St. Louis, MO, USA). Forty micrograms of proteins were electrophoresed in 12% SDS-polyacrylamide gel, and then, the gel was placed onto a Trans-Blot Turbo mini nitrocellulose transfer pack and transferred using a Trans-Blot Turbo Transfer System (Bio-Rad Laboratories, Hercules, CA, USA). The membrane was incubated with […] primary antibody and then with […] horseradish peroxidase (HRP)-conjugated secondary antibodies (Santa Cruz Biotechnology, Dallas, TX, USA). […]
To better characterize the antiproliferative effect of BA103, we performed further biological evaluation using GBM cell lines. The expression of DDX3X was evaluated in U87 and U251 cell lines by Western blot analysis in comparison with HepG2 cells, resulting in basally detectable mainly in U87 cells (Figure 6A). […] Thus, also according to the importance of β-catenin signaling in GBM, we analyzed whether the expression of β-catenin in U87 and U251 cells could be associated with DDX3X activity. GBM cells were treated with BA103 for 48 h, and then, β-catenin expression was evaluated by Western blot analysis and immunofluorescence analysis (Figure 7A,B, respectively). […]

U87 and U251 cells [2] = assay: Transwell migration assay in GBM cells; settings: 48 h of incubation, vs untreated cells
Method: Exponential growing cells were treated with the inhibitor or vehicle for 48 h and then trypsinized, washed twice with PBS, rinsed in complete medium, incubated at 37 °C for 30 min to reconstitute the membrane structures, washed again for FCS removal, and then added to the upper compartment of collagen-coated (PTFE) Transwell insert (Corning Inc., Corning, NY, USA). Cells were allowed to migrate through coated filters for 6 h. The cells attached on the lower membrane surfaces were stained with 0.1% crystal violet w/v in 0.1 mol/L borate, pH 9.0, and 2% ethanol v/v for 20 min at room temperature. Cells were counted at 400× magnification in standard optical microscopy, and the average number of cells per field in 5 random fields was recorded. Triplicate filters were used, and the experiments were repeated at least two times.
To better characterize the antiproliferative effect of BA103, we performed further biological evaluation using GBM cell lines. The expression of DDX3X was evaluated in U87 and U251 cell lines by Western blot analysis in comparison with HepG2 cells, resulting in basally detectable mainly in U87 cells (Figure 6A). […] Thus, also according to the importance of β-catenin signaling in GBM, we analyzed whether the expression of β-catenin in U87 and U251 cells could be associated with DDX3X activity. […]

β-catenin = β-catenin expression by Western blot and immunofluorescence; settings: U87 and U251 cells, 48 h
Method: as §1
Cells grown on coverslips (2 × 10^4 cells/cm^2) were fixed in 4% w/v paraformaldehyde in PBS for 10 min at RT and permeabilized in PBS containing 0.1% v/v Triton X-100 for 5 min at RT. […] After extensive washings, cells were mounted with ProLong Gold antifade mounting medium (Life Technologies Corporation, Carlsbad, CA, USA) and observed by a fluorescence microscope equipped with a digital camera (AXIOPHOT, Carl Zeiss, Oberkochen, Germany).
To better characterize the antiproliferative effect of BA103, we performed further biological evaluation using GBM cell lines. The expression of DDX3X was evaluated in U87 and U251 cell lines by Western blot analysis in comparison with HepG2 cells, resulting in basally detectable mainly in U87 cells (Figure 6A). […]

Structure (SMILES): CCCCc1cn(-c2ccc(NC(=O)Nc3ccccc3C(F)(F)F)cc2)nn1 [BA103, 1-(4-(4-Butyl-1H-1,2,3-triazol-1-yl)phenyl)-3-(2-(trifluoromethyl)phenyl)urea]
- cell cycle distribution (U87 and U251 cells [1]): significant accumulation of cells in the G0/G1 phase
- expression of DDX3X (DDX3X): reduction in the expression of DDX3X
- migration through collagen-coated Transwell filters (U87 and U251 cells [2]): reduced ability to migrate
- expression of β-catenin (β-catenin): reduction in the expression of β-catenin
